# In PubChem BioAssay (NCI):
#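 Protocol summary: plate cells (96-well), add compound at 5 concentrations, incubate 48 h, interpolate endpoints linearly. TGI marks complete inhibition of growth.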
# Key:
# Assay in all cases: NCI-60 cell line screen, 48 h
# 786-0 renal = test system: 786-0 renal
# A498 renal = test system: A498 renal
# A549 NSCLC = test system: A549 NSCLC
# ACHN renal = test system: ACHN renal
# BT-549 breast = test system: BT-549 breast
# CAKI-1 renal = test system: CAKI-1 renal
# CCRF-CEM leukemia = test system: CCRF-CEM leukemia
# COLO 205 colon = test system: COLO 205 colon
# DU-145 prostate = test system: DU-145 prostate
# EKVX NSCLC = test system: EKVX NSCLC
# HCC-2998 colon = test system: HCC-2998 colon
# HCT-116 colon = test system: HCT-116 colon
# HCT-15 colon = test system: HCT-15 colon
# HL-60(TB) leukemia = test system: HL-60(TB) leukemia
# HOP-62 NSCLC = test system: HOP-62 NSCLC
# HOP-92 NSCLC = test system: HOP-92 NSCLC
# HS 578T breast = test system: HS 578T breast
# HT29 colon = test system: HT29 colon
# IGROV1 ovarian = test system: IGROV1 ovarian
# K-562 leukemia = test system: K-562 leukemia
# KM12 colon = test system: KM12 colon
# LOX IMVI melanoma = test system: LOX IMVI melanoma
# M14 melanoma = test system: M14 melanoma
# MALME-3M melanoma = test system: MALME-3M melanoma
# MCF7 breast = test system: MCF7 breast
# MDA-MB-231 breast = test system: MDA-MB-231 breast
# MDA-MB-435 = test system: MDA-MB-435
# MDA-N = test system: MDA-N
# MOLT-4 leukemia = test system: MOLT-4 leukemia
# NCI-H226 lung = test system: NCI-H226 lung
# NCI-H23 lung = test system: NCI-H23 lung
# NCI-H460 lung = test system: NCI-H460 lung
# NCI-H522 lung = test system: NCI-H522 lung
# NCI/ADR-RES ovarian = test system: NCI/ADR-RES ovarian
# OVCAR-3 ovarian = test system: OVCAR-3 ovarian
# OVCAR-4 ovarian = test system: OVCAR-4 ovarian
# OVCAR-5 ovarian = test system: OVCAR-5 ovarian
# OVCAR-8 ovarian = test system: OVCAR-8 ovarian
# PC-3 prostate = test system: PC-3 prostate
# RPMI-8226 leukemia = test system: RPMI-8226 leukemia
# RXF 393 renal = test system: RXF 393 renal
# SF-268 CNS = test system: SF-268 CNS
# SF-295 CNS = test system: SF-295 CNS
# SF-539 CNS = test system: SF-539 CNS
# SK-MEL-2 melanoma = test system: SK-MEL-2 melanoma
# SK-MEL-28 melanoma = test system: SK-MEL-28 melanoma
# SK-MEL-5 melanoma = test system: SK-MEL-5 melanoma
# SK-OV-3 ovarian = test system: SK-OV-3 ovarian
# SN12C renal = test system: SN12C renal
# SNB-19 CNS = test system: SNB-19 CNS
# SNB-75 CNS = test system: SNB-75 CNS
# SR leukemia = test system: SR leukemia
# SW-620 colon = test system: SW-620 colon
# T-47D breast = test system: T-47D breast
# TK-10 renal = test system: TK-10 renal
# U251 CNS = test system: U251 CNS
# UACC-257 melanoma = test system: UACC-257 melanoma
# UACC-62 melanoma = test system: UACC-62 melanoma
# UO-31 renal = test system: UO-31 renal
smiles,measurement,setting,value
Cc1cccc(NC(=O)/C=C/c2ccc([N+](=O)[O-])cc2)c1,TGI,786-0 renal,> 51.2 µM
same,TGI,A498 renal,> 100 µM
same,TGI,A549 NSCLC,> 56.2 µM
same,TGI,ACHN renal,28.8 µM
same,TGI,BT-549 breast,> 51.8 µM
same,TGI,CAKI-1 renal,> 54.4 µM
same,TGI,CCRF-CEM leukemia,> 100 µM
same,TGI,COLO 205 colon,> 56.3 µM
same,TGI,DU-145 prostate,> 55 µM
same,TGI,EKVX NSCLC,> 56.5 µM
same,TGI,HCC-2998 colon,32.7 µM
same,TGI,HCT-116 colon,> 52.9 µM
same,TGI,HCT-15 colon,> 56.7 µM
same,TGI,HL-60(TB) leukemia,> 24.8 µM
same,TGI,HOP-62 NSCLC,33.4 µM
same,TGI,HOP-92 NSCLC,50.7 µM
same,TGI,HS 578T breast,> 87 µM
same,TGI,HT29 colon,> 70.3 µM
same,TGI,IGROV1 ovarian,> 53.7 µM
same,TGI,K-562 leukemia,> 100 µM
same,TGI,KM12 colon,> 52.8 µM
same,TGI,LOX IMVI melanoma,> 53 µM
same,TGI,M14 melanoma,> 59.4 µM
same,TGI,MALME-3M melanoma,66.9 µM
same,TGI,MCF7 breast,> 43.9 µM
same,TGI,MDA-MB-231 breast,> 52.8 µM
same,TGI,MDA-MB-435,> 52.3 µM
same,TGI,MDA-N,> 52.2 µM
same,TGI,MOLT-4 leukemia,> 65.4 µM
same,TGI,NCI-H226 lung,> 72 µM
same,TGI,NCI-H23 lung,31.7 µM
same,TGI,NCI-H460 lung,> 64.5 µM
same,TGI,NCI-H522 lung,> 53.9 µM
same,TGI,NCI/ADR-RES ovarian,> 59.3 µM
same,TGI,OVCAR-3 ovarian,27.6 µM
same,TGI,OVCAR-4 ovarian,> 56.3 µM
same,TGI,OVCAR-5 ovarian,> 57 µM
same,TGI,OVCAR-8 ovarian,> 53.7 µM
same,TGI,PC-3 prostate,28.6 µM
same,TGI,RPMI-8226 leukemia,> 68.8 µM
same,TGI,RXF 393 renal,> 52.7 µM
same,TGI,SF-268 CNS,> 76.8 µM
same,TGI,SF-295 CNS,> 58 µM
same,TGI,SF-539 CNS,> 74.1 µM
same,TGI,SK-MEL-2 melanoma,49.4 µM
same,TGI,SK-MEL-28 melanoma,> 57.6 µM
same,TGI,SK-MEL-5 melanoma,> 51 µM
same,TGI,SK-OV-3 ovarian,> 61.5 µM
same,TGI,SN12C renal,> 58.2 µM
same,TGI,SNB-19 CNS,> 47.9 µM
same,TGI,SNB-75 CNS,> 60.4 µM
same,TGI,SR leukemia,> 24.5 µM
same,TGI,SW-620 colon,> 60.2 µM
same,TGI,T-47D breast,> 55.9 µM
same,TGI,TK-10 renal,> 56.8 µM
same,TGI,U251 CNS,> 52.9 µM
same,TGI,UACC-257 melanoma,> 55.1 µM
same,TGI,UACC-62 melanoma,> 58.5 µM
same,TGI,UO-31 renal,> 50.4 µM
